For orientation: pKa means the negative logarithm of the acid dissociation constant.

For data set [1] the following is noted: reported value; cited from earlier work.
The nature of data set [2]: Stability in aqueous media: background fluorescence turn-on with vehicle control. It is filed as physicochemical. Particulars: PBS. The procedure: (§1) FIG. 4. The normalized fluorescence turn-on response of NitroxylBlue-1, -2, and -3 treated with a vehicle control and incubated in PBS at 37° C. are shown in black. The normalized fluorescence turn-on response of NitroxylBlue-1, -2, and -3 treated with 100 μM Angeli's salt are shown in green. All data was taken 10 minutes after treatment. Statistical significance measured with respect to the corresponding control. *, p<0.05; **, p<0.01. (n=3).
FIG. 5. The normalized fluorescence turn-on response of S-methyl NitroxylBlue treated with vehicle control (black) or Angeli's salt (100 μM) and incubated in PBS at 25° C. All data was taken 15 minutes after treatment.

The nature of data set [3]: Fluorescence turn-on response to HNO (Angeli's salt) in vitro. The procedure: (§2) FIG. 2. a) Fluorescence spectra of NitroxylFluor (2 μM) upon addition of AS (100 μM). b) Fluorescence kinetic trace of NitroxylFluor upon addition of 1 mM Angeli's salt, arrow indicates time of addition. c) Response of NitroxylFluor to various reactive oxygen, sulfur, and nitrogen species at concentrations of 100 μM (GSH was tested at 1 mM). Measurements were taken 15 minutes into treatment. d) Competition assays against various thiols. Control indicates no addition of Angeli's salt. Statistics are compared to the control. *, p<0.05; ***, p<0.001; p<0.0001. (n=3).
as §1
Angeli's salt was stored at −20° C. Stocks of Angeli's salt were added as a 10 mM solution in 10 mM KOH (for stability). Hydrogen peroxide was added as a 10 mM stock solution prepared by diluting 30% hydrogen peroxide in deionized water. Superoxide was added as a 1 mM stock solution of potassium superoxide in DMSO (for stability). […]

Data set [4] can be described thus: Selectivity against reactive oxygen, sulfur and nitrogen species. The protocol:
as §2
Angeli's salt was stored at −20° C. Stocks of Angeli's salt were added as a 10 mM solution in 10 mM KOH (for stability). […]
Hydroxyl radical was prepared by first preparing a 10 mM solution of Mohr's Salt (Fe(NH4)2(SO4)2.6H2O in 0.1 M HCl which was degassed by bubbling nitrogen gas for 20 minutes through the solution. A solution of the probe was made in buffer and degassed and the initial reading was taken. 10 μL of 10 mM Hydrogen Peroxide and Mohr's salt solution giving a final volume of 1 mL (100 μM hydroxyl radical) were added and allowed to incubate at 37° C. for the duration of the selectivity assay with a septum on the cuvette. Iron(II) was prepared via the same procedure as hydroxyl radical only hydrogen peroxide was not added. […]

The nature of data set [5]: Competition assays against thiols for HNO. The note with it: 10 μM probe, Angeli's salt 200 μM. The procedure:
FIG. 2. a) Fluorescence spectra of NitroxylFluor (2 μM) upon addition of AS (100 μM). b) Fluorescence kinetic trace of NitroxylFluor upon addition of 1 mM Angeli's salt, arrow indicates time of addition. c) Response of NitroxylFluor to various reactive oxygen, sulfur, and nitrogen species at concentrations of 100 μM (GSH was tested at 1 mM). Measurements were taken 15 minutes into treatment. d) Competition assays against various thiols. Control indicates no addition of Angeli's salt. […] (n=3).
In these experiments, 10 μM solutions of NitroxylFluor and various thiols such as L-cysteine (100 μM), N-acetyl-L-cysteine (100 μM), and GSH (1 mM) was treated with Angeli's salt (200 μM) (FIG. 2d).

The test system of data set [6] is MDA-MB-231 cells. Nature of the data set: Confocal imaging of HNO in living cells. The format is cell-based, human. The protocol:
FIG. 3. Confocal microscopy images acquired by irradiation of MDA-MB-231 cells treated with 0 μM (vehicle control), 250 μM, 500 μM, 1000 μM Angeli's salt for 15 mins at 25° C. with a 488 nm laser. Images taken through a 40× oil immersion objective. Scale bar represents 20 μm. b) Quantification of imaging data. *, p<0.05; ***, p<0.001; p<0.0001.
FIG. 8. Representative time course imaging of MDA-MB-231 cells stained with 4 μM NitroxylFluor for 15 minutes followed by replacement with fresh PBS with no probe. Angeli's salt (200 μM) was added 5 minutes after PBS was replaced. Images were taken through a 40× oil immersion objective at 0, 10, and 20 mins after AS addition at 25° C. via irradiation with a 488 nm laser. Scale bar represents 20 μm.
MDA-MB-231 adenocarcinoma cells were acquired from Prof. David J. Shapiro (Biochemistry, UIUC). Cells were cultured in phenol-red free Dulbecco's modified eagle medium (DMEM, Corning) supplemented with 10% fetal bovine serum (FBS, Sigma Aldrich), and 1% penicillin/streptomycin (Corning). Cells were incubated at 37° C. with 5% CO2. Experiments were performed in 8-well chambered cover glasses (Lab-Tek, Thermo Scientific).
An 8-well chambered cover glass was seeded with 0.4 mL of the above-mentioned cells at a density of 200,000 cells/mL. Cells were imaged at roughly 80% confluency (24 hours after seeding). Media was removed from each well and cells were washed with 200 μL PBS. The PBS was removed from the wells and replaced with 198 μL. 2 μL of 200 μM NitroxylFluor in PBS was added and gently stirred before being allowed to incubate at 37° C. with 5% CO2 for 15 minutes. PBS was then removed from the wells and replaced with 195 μL, 190 μL, or 180 μL PBS. The remaining volume to 200 μL was filled with 10 mM Angeli's salt in 10 mM KOH (or 10 mM KOH in the vehicle control) to give final concentrations of 0.250 mM, 0.500 mM, or 1 mM Angeli's salt. […] 3-5 images of each well were taken and their mean fluorescence (as reported by ImageJ) was averaged to give an average value for each well. […]

For data set [7], the system named is MDA-MB-231 cells. Nature of the data set: MTT cytotoxicity assay. The format is cell-based, human. The procedure: FIG. 9. MTT assay to determine the cytotoxicity of NitroxylFluor at 4 μM over 3, 6, and 24 hours. Detailed protocol available on page 3 of this supporting information document.
A 96-well plate was seeded with 20,000 cells per well (200 μL of 150,000 cells/mL) and incubated at 37° C. with 5% CO2 for 24 h (˜70% confluent). […] After 3, 6, and 24 h the media was removed and replaced with […] 20:1 mixture of FBS-free DMEM and (3-(4,5-dimethylthiazol-2-yl)-2,5-diphenyl-tetrazolium bromide (MTT, 5 mg/mL stock in PBS). The cells were incubated for 4 h under the same conditions and then the medium was removed and replaced with DMSO ([…]). The absorbance of each well was recorded at 555 nm on a microplate reader. Viability was calculated by the absorbance relative to the vehicle control. Results pictured in FIG. 7.
In general terms: Tetrazolium dyes change colour on reduction, which living cells bring about.

Data set [8] in a line: Thiol pKa by UV/vis absorbance at 230 nm. It is filed as physicochemical. The note with it: Britton-Robinson Universal Buffer. From the text:
Assay was completed by measuring the absorbance at 230 nm as described by Tajc et al. (J Am Chem Soc 2004, 126, 10508). Each reading was taken in triplicate and averaged in the respective pH Britton-Robinson Universal Buffer.

The structures appear in SMILES notation.

Turning to `N[C@@H](CCC(=O)N[C@@H](CS)C(=O)NCC(=O)O)C(=O)O` [GSH, glutathione], the “reported pKa” value in data set [1] is 9.42.

`Cc1cc(=O)oc2cc(OC(=O)C(C)(C)S)ccc12` [NB-2]: the “background fluorescence turn-on (hydrolysis / alpha-thiolactonization)” value in data set [2] (vehicle control, 37° C., after 10 minutes) was 1.6 fold. In data set [3] (100 μM Angeli's salt, PBS, 37° C., 10 minutes after treatment), the “fluorescence turn-on response with Angeli's salt” value is 3.5 fold.

On to `CC(C)(S)C(=O)Oc1c(Cl)cc2c(c1Cl)Oc1cc(O)ccc1C21OCc2ccccc21` (stereo not shown) [NitroxylFluor], for which the “change in fluorescence with reactive sulfur and nitrogen species” value in data set [4] (e.g. H2S, NO, 100 μM, 15-minute incubation at 37° C.) is given as “no change in fluorescence”. The cross-reactivity with oxidants entry in data set [4] (oxidants incl. H2O2, 100 μM, 15 minutes) is listed as “not observed”. Also, in data set [5] (GSH 1 mM), the “fluorescent turn-on response in presence of GSH” value is recorded as 3.9 fold. The “fluorescence increase in competition with L-cysteine” value in data set [5] (L-cysteine 100 μM) was 16.2 fold. For the same compound, the “fluorescence enhancement in competition with N-acetyl-L-cysteine” value in data set [5] (N-acetyl-L-cysteine 100 μM) worked out at 9.8 fold. In the data set with MDA-MB-231 cells [6] (250 μM Angeli's salt, 15 mins), the “fluorescence enhancement at lowest Angeli's salt concentration” value is on record as “statistically significant enhancement”. For the same compound, the “fluorescence during time-lapse imaging” value with MDA-MB-231 cells [6] (500 μM Angeli's salt, images every 1 min for 20 mins) was “gradual increase in the fluorescence”. Besides, the “fluorescence turn-on response in cells” value in the data set on MDA-MB-231 cells [6] (Angeli's salt 250 μM to 1000 μM, after 15 mins) was “dose-dependent fluorescence turn-on response”. For the same compound, the “cytotoxicity (MTT) versus DMSO control” value with MDA-MB-231 cells [7] (4 μM, 3, 6, and 24 hours, n=3) is listed as “No time point has significant difference from the DMSO control”. In addition, the “cytotoxicity (MTT)” value with MDA-MB-231 cells [7] (10 μM probe, 3, 6, and 24 h) was “Cytotoxicity at any time point was not observe”. The “fluorescent turn-on response on reaction with HNO” value in data set [3] (NitroxylFluor 2 μM, Angeli's salt 100 μM, in a matter of seconds) is listed as 16 fold.

Consider `CSC(C)(C)C(=O)Oc1ccc2c(C)cc(=O)oc2c1` [S-Methyl NitroxylBlue-2, reference compound], for which the “hydrolysis after incubation in aqueous media” value in data set [2] (25° C., 15 minutes) is recorded as “No hydrolysis was observed”.

`COC(=O)C(C)(C)S` [compound 16, Methyl 2-mercapto-2-methylpropanoate] came in with a pKa in data set [8] of 8.01.

Values taken from patent US11339175B2, “Thiol-based fluorescent probe for reactive species” (The Board of Trustees of the University of Illinois, priority 2018, dated 2022).
